Assay results taken from patent US11247982B2, “NMDA receptor modulators, compositions comprising same and use of these compounds in the treatment of diseases involving the central nervous system” (ADPUERIVITAM, priority 2017, dated 2022).

Tested on: NMDA receptors
Experiment: Whole-cell patch-clamp of NMDA currents in cultured rat embryonic hippocampal neurons
Format: cell-based
Conditions: for A. NMDA current: Summary: 10 μM test compound; for C. Channel closing kinetics: T run-down (ms) / C. Channel closing kinetics: Tau (s) / D. Desensitization: Slope (pA/s) / C. Channel closing kinetics: Max slope (pA/s) / B. Channel opening kinetics: Min slope (pA/s) / C. Channel closing kinetics: Run down slope (pA/s) / B. Channel opening kinetics: Run-up slope (pA/s) / B. Channel opening kinetics: T run-up (ms) / B. Channel opening kinetics: Time to peak (ms): 10 μM test compound vs NMDA alone; for C. Channel closing kinetics: T run-down (ms): closing time between 90% and 10% of max current; for C. Channel closing kinetics: T run-down (ms) / C. Channel closing kinetics: Tau (s) / D. Desensitization: Slope (pA/s) / C. Channel closing kinetics: Max slope (pA/s) / B. Channel opening kinetics: Min slope (pA/s) / C. Channel closing kinetics: Run down slope (pA/s) / B. Channel opening kinetics: Run-up slope (pA/s) / B. Channel opening kinetics: T run-up (ms) / B. Channel opening kinetics: Time to peak (ms) / A. NMDA current: Width 50 (ms) / A. NMDA current: Peak area (pA · s): (n) = cells; for C. Channel closing kinetics: Tau (s): closing time of 50% of the channels (half-life); for D. Desensitization: Slope (pA/s): desensitization speed during the application of NMDA; for C. Channel closing kinetics: Max slope (pA/s): greatest closing speed; for B. Channel opening kinetics: Min slope (pA/s): greatest opening speed; for C. Channel closing kinetics: Run down slope (pA/s): mean closing speed during T run-down; for B. Channel opening kinetics: Run-up slope (pA/s): mean opening speed during T run-up; for B. Channel opening kinetics: T run-up (ms): opening time between 10% and 90% of max current; for B. Channel opening kinetics: Time to peak (ms): time to reach the maximum current; for A. NMDA current: Width 50 (ms) / A. NMDA current: Peak area (pA · s) / A. NMDA current: Height (pA): 10 μM test compound with 100 μM NMDA + 5 μM L-glycine vs NMDA alone; for A. NMDA current: Width 50 (ms): duration of current above 50% of Height; for A. NMDA current: Peak area (pA · s): total current integrated over time; for A. NMDA current: Height (pA): −60 mV, maximum current, (n) = number of cells; for A. NMDA current: Washable / B. Channel opening kinetics: Washable / C. Channel closing kinetics: Washable / D. Desensitization: Washable: persistence of effect, NMDA wash vs NMDA + test compound
Protocol: Female Wistar rats in gestation with 17-day-old embryos (E17) were obtained from Janvier Labs. On the day of receipt of the animals, the rat is sacrificed and the embryos are dissected under sterile conditions to remove their brain, which is then micro-dissected in GBSS (Gey's balanced salt solution) medium to obtain the hippocampus from the two hemispheres, while discarding the meninges. The tissues harvested from at least five embryos are placed in 2 ml of DMEM medium (registered trademark) (Dulbecco's modified Eagle's medium—from Life Technologies) with 2% of fetal calf serum, 2 mM of glutamine, 0.1 mg/mL of penicillin-streptomycin antibiotic mixture (Life Technologies) and subjected to mechanical dissociation of the cells by passing through round-ended glass pipettes with an inside diameter decreasing from 0.5 to 0.2 mm. The cells are counted and 100 μl of suspension containing 25×10^3 cells are placed on a glass slide coated with polylysine (poly-D-lysine hydrobromide from 75 to 150 kDa, from Sigma) of Ø 12 mm, in 12-well culture plates and incubated for 2 hours at 37° C. under an atmosphere containing 5% of CO2 to allow cell adhesion. A volume of 2 mL of culture medium is added gently: Neurobasal (registered trademark) with 1/50 (v:v) serum-free supplement B-27® (Life Technologies), 2 mM of glutamine, 0.1 mg/ml of penicillin-streptomycin antibiotic mixture (from Life Technologies), and incubation is again performed under the same conditions. Half of the medium is replaced twice a week for maintenance. The neuronal cells will be able to differentiate over a period of 12 to 30 days. The cultures are monitored by phase-contrast microscopy: the extension of the neurites and of the synaptic connections is observed for the neurons, which represent the majority of the cells, while a few astrocytes are also present.
The electrophysiology post consists of an Olympus IMT-2 model inverted phase-contrast microscope placed on a TMC antivibration table in a Faraday cage. The installation also comprises an SF-77B model Warner multichannel perfusion system, a Burleigh PCS-5000 model 3D-micromanipulator system holding the microelectrode probe, a Warner PC-505 model patch-clamp amplifier and a PowerLab 8/35 model 8-channel analog-digital interface from ADInstruments. The glass microelectrode is manufactured with thin-walled borosilicate capillary tubes (1.5 OD×1.17 ID×100 L mm, from Harvard Apparatus) and prepared with the Narishige PC10 model vertical electrode puller to obtain an electrical resistance of about 5 MOhm. The electrode of the pipette is filled with the intracellular medium composed of (in mM): 100 CsF, 40 CsCl, 1.2 CaCl2, 20 HEPES, 10 EGTA, pH=7.4 (adjusted with CsOH).
The culture on its slide is placed in a 60 mm Petri dish with 2 ml of extracellular medium composed of (in mM): 140 NaCl, 5 KCl, 1.2 CaCl2, 1.5 MgCl2, 12 HEPES, 12 Na-HEPES, 33 glucose, pH=7.4.
The neuron selected is patched in the whole cell configuration. The maintenance potential is set at −60 mV.
The assembled glass microtubes of square cross section of the perfusion system each provide a stable stream of different composition. The “TTX” default medium corresponds to the extracellular medium to which is added 1 μM tetrodotoxin. The “NMDA” application medium is “TTX” supplemented with 100 μM of NMDA (N-methyl-D-aspartate) as agonist, and 5 μM of L-glycine as co-agonist. The “NMDA+ test compound” medium corresponds to the “NMDA” supplemented with 10 μM of the test compound. The “NMDA wash” is identical to the “NMDA” medium.
As a general rule, three applications of each test compound are performed on the patched cell, for 2 seconds at intervals of 3 minutes (to allow inversion of desensitization). The sequence of the applications is: 1) “NMDA”, 2) “NMDA+ test compound”, 3) “NMDA wash”. The “TTX” medium is applied by default, before and after each application of test compound. […]

| Compound | A. NMDA current: Summary | C. Channel closing kinetics: T run-down (ms) | C. Channel closing kinetics: Tau (s) | D. Desensitization: Slope (pA/s) | C. Channel closing kinetics: Max slope (pA/s) | B. Channel opening kinetics: Min slope (pA/s) | C. Channel closing kinetics: Run down slope (pA/s) | B. Channel opening kinetics: Run-up slope (pA/s) | B. Channel opening kinetics: T run-up (ms) | B. Channel opening kinetics: Time to peak (ms) | A. NMDA current: Width 50 (ms) | A. NMDA current: Peak area (pA · s) | A. NMDA current: Height (pA) | A. NMDA current: Washable | B. Channel opening kinetics: Washable | C. Channel closing kinetics: Washable | D. Desensitization: Washable | antagonistic effect on the maximum current amplitude (concentration of less than 1 μM) |
| --- | --- | --- | --- | --- | --- | --- | --- | --- | --- | --- | --- | --- | --- | --- | --- | --- | --- | --- |
| O=C(C[C@]1(O)C(=O)N(CCc2c[nH]c3ccccc23)c2ccccc21)c1ccccc1F [Molecule 3] | Antagonist (2+) | 2 ± 4% (13) | 17 ± 5 (13) % | −43 ± 8% (13) | −22 ± 4% (13) | −22 ± 4 (13) % | −30 ± 8% (13) | −23 ± 5% (13) | −8 ± 6% (13) | −5 ± 3% (13) | −10 ± 7% (13) | −16 ± 8% (13) | −24 ± 7% (13) | (No/Yes) | (Yes/No) | No | No | – |
| O=C(C[C@]1(O)C(=O)N(CCc2c[nH]c3ccccc23)c2ccccc21)c1ccccc1Cl [Molecule 2] | Antagonist (6+) | −15 ± 5% (7) | 44 ± 28% (7) | −70 ± 17% (7) | −28 ± 8% (7) | −25 ± 9% (7) | −63 ± 13% (7) | −61 ± 10% (7) | −16 ± 13% (7) | −7 ± 4% (7) | −49 ± 14% (7) | −65 ± 13% (7) | −66 ± 10% (7) | Yes | (Yes/No) | (Yes/No) | (Yes) | – |
| Cc1ccc2[nH]c(=O)c(C3=NN(C(=O)CCC(=O)O)C(c4ccc(Br)cc4)C3)c(-c3ccccc3)c2c1 (stereo not shown) [DQP1105, reference compound] | – | – | – | – | – | – | – | – | – | – | – | – | – | – | – | – | – | maintained at the same level |
| O=C(C[C@]1(O)C(=O)N(CCc2c[nH]c3ccccc23)c2ccccc21)c1cccc(Cl)c1 [Molecule 1] | Antagonist (4+) | 12 ± 6% (7) | 29 ± 13% (6) | −59 ± 8% (7) | −27 ± 10% (7) | −35 ± 12% (7) | −48 ± 8% (7) | −45 ± 7% (7) | 3 ± 3% (7) | 1 ± 4% (7) | 0 ± 9% (7) | −37 ± 12% (7) | −43 ± 8% (7) | No | No | No | No | – |
